Test results as given in the supplement of paper PMC11061612.

Tests used:
Experiment in all cases: combination Emax (second highest fraction inhibited in the dose matrix, 72 h); higher = more inhibition; extreme values may be limits of the assay
[1] = system: CAMA-1 (Breast Carcinoma)
Outline: (§1)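 Bliss excess equals the observed combination effect minus the expected value EA + EB − EA·EB, where EA and EB are the effects of each agent alone. Combination Emax is the second-highest inhibition within the matrix. Inhibition was scaled from CellTiter-Glo 2.0 luminescence, with 0 set by vehicle wells and 1 by blank wells, after 72 hours of two-drug dosing of cells plated in 1536-well plates.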

[2] = system: NCI-H847 (Small Cell Lung Carcinoma)
Outline: as §1

[3] = system: MKN28 (Gastric Carcinoma)
Outline: as §1

[4] = system: PANC-08-13 (Pancreatic Carcinoma)
Outline: as §1

[5] = system: MS751 (Cervical Carcinoma)
Outline: as §1

WM-115 (Melanoma) = system: WM-115 (Melanoma)
Outline: as §1

[6] = system: NCI-H1792 (Lung Adenocarcinoma)
Outline: as §1

[7] = system: COLO-678 (Colorectal Carcinoma)
Outline: as §1

LN-18 (Glioblastoma) = system: LN-18 (Glioblastoma)
Outline: as §1

[8] = system: EVSA-T (Breast Carcinoma)
Outline: as §1

NCI-H2818 (Mesothelioma) = system: NCI-H2818 (Mesothelioma)
Outline: as §1

U251 (Low Grade Glioma) = system: U251 (Low Grade Glioma)
Outline: as §1

TC-71 (Ewing's Sarcoma) = system: TC-71 (Ewing's Sarcoma)
Outline: as §1

[9] = system: SW837 (Colorectal Carcinoma)
Outline: as §1

[10] = system: KCL-22 (Chronic Myelogenous Leukemia)
Outline: as §1

[11] = system: KYSE-180 (Esophageal Squamous Cell Carcinoma)
Outline: as §1

[12] = system: DND-41 (T-Lymphoblastic Leukemia)
Outline: as §1

[13] = system: BL-41 (Burkitt's Lymphoma)
Outline: as §1

MEL-JUSO (Melanoma) = system: MEL-JUSO (Melanoma)
Outline: as §1

[14] = system: BFTC-905 (Bladder Carcinoma)
Outline: as §1

| Structure (SMILES) | combination Emax [1] | combination Emax [2] | combination Emax [3] | combination Emax [4] | combination Emax [5] | combination Emax (WM-115 (Melanoma)) | combination Emax [6] | combination Emax [7] | combination Emax (LN-18 (Glioblastoma)) | combination Emax [8] | combination Emax (NCI-H2818 (Mesothelioma)) | combination Emax (U251 (Low Grade Glioma)) | combination Emax (TC-71 (Ewing's Sarcoma)) | combination Emax [9] | combination Emax [10] | combination Emax [11] | combination Emax [12] | combination Emax [13] | combination Emax (MEL-JUSO (Melanoma)) | combination Emax [14] |
| --- | --- | --- | --- | --- | --- | --- | --- | --- | --- | --- | --- | --- | --- | --- | --- | --- | --- | --- | --- | --- |
| COc1cccc(OCCCN)c1-c1cc(Nc2cnc(C#N)cn2)n[nH]1 [Prexasertib] + O=C(c1cc(Cc2n[nH]c(=O)c3ccccc23)ccc1F)N1CCN(C(=O)C2CC2)CC1 [Olaparib] (first compound max 1 µM, 7x7, partner max 10 µM) | 0.37 | 1 | 0.46 | 0.536 | 0.465 | 0.556 | 0.84 | 0.169 | 0.807 | 0.433 | 0.285 | 0.733 | 0.987 | 0.645 | 0.953 | 0.983 | 0.85 | 1 | 0.686 | 0.848 |
| CC1(C)CCC(CN2CCN(c3ccc(C(=O)NS(=O)(=O)c4ccc(NCC5CCOCC5)c([N+](=O)[O-])c4)c(Oc4cnc5[nH]ccc5c4)c3)CC2)=C(c2ccc(Cl)cc2)C1 [Venetoclax] + Cc1cc2ncnn2cc1Nc1ncc2c(n1)n(C1CCOCC1)c(=O)n2C [AZD7648] (first compound max 1 µM, 7x7, partner max 10 µM) | 0.228 | 0.735 | 0.229 | 0.218 | 0.191 | 0.238 | 0.397 | 0.16 | 0.378 | 0.305 | 0.352 | 0.202 | 0.262 | 0.102 | 0.159 | 0.142 | 0.885 | 0.17 | 0.183 | 0.207 |
| CN(C)CCCOc1ccc(-c2ccc3ncc4c(c3c2)n(C2CCOCC2)c(=O)n4C)cn1 [AZD0156] + CCN(CCO)CCCOc1ccc2c(Nc3cc(CC(=O)Nc4cccc(F)c4)[nH]n3)ncnc2c1 [AZD2811] (first compound max 1 µM, 7x7, partner max 1 µM) | 0.14 | 0.949 | 0.135 | 0.0865 | 0.326 | 0.183 | 0.147 | 0.144 | 0.33 | 0.269 | 0.16 | 0.179 | 0.837 | 0.0741 | 0.333 | 0.0693 | 0.206 | 0.744 | 0.16 | 0.428 |
| CCc1c2c(nc3ccc(O)cc13)-c1cc3c(c(=O)n1C2)COC(=O)[C@]3(O)CC [SN-38] + CN(C)CCCOc1ccc(-c2ccc3ncc4c(c3c2)n(C2CCOCC2)c(=O)n4C)cn1 [AZD0156] (first compound max 0.3 µM, 7x7, partner max 1 µM) | 0.208 | 0.976 | 0.451 | 0.131 | 0.883 | 0.43 | 0.757 | 0.268 | 0.617 | 0.421 | 0.499 | 0.897 | 1 | 0.343 | 0.921 | 0.411 | 0.934 | 1 | 0.263 | 0.957 |
| COc1cccc(OCCCN)c1-c1cc(Nc2cnc(C#N)cn2)n[nH]1 [Prexasertib] + Cc1cc2ncnn2cc1Nc1ncc2c(n1)n(C1CCOCC1)c(=O)n2C [AZD7648] (first compound max 1 µM, 7x7, partner max 10 µM) | 0.384 | 1 | 0.575 | 0.587 | 0.453 | 0.59 | 0.87 | 0.0565 | 0.75 | 0.358 | 0.344 | 0.622 | 0.945 | 0.749 | 1 | 0.974 | 0.844 | 1 | 0.712 | 0.856 |
| CN(C)CCCOc1ccc(-c2ccc3ncc4c(c3c2)n(C2CCOCC2)c(=O)n4C)cn1 [AZD0156] + C=CCn1c(=O)c2cnc(Nc3ccc(N4CCN(C)CC4)cc3)nc2n1-c1cccc(C(C)(C)O)n1 [AZD1775] (first compound max 1 µM, partner max 1 µM) | 0.104 | 0.971 | 0.481 | 0.247 | 0.155 | 0.254 | 0.643 | 0.226 | 0.291 | 0.221 | 0.327 | 0.398 | 0.452 | 0.237 | 0.895 | 0.749 | 0.848 | 1 | 0.486 | 0.517 |
| CC1(C)CCC(CN2CCN(c3ccc(C(=O)NS(=O)(=O)c4ccc(NCC5CCOCC5)c([N+](=O)[O-])c4)c(Oc4cnc5[nH]ccc5c4)c3)CC2)=C(c2ccc(Cl)cc2)C1 [Venetoclax] + C[C@@H]1COCCN1C2=NC(=NC(=C2)C3(CC3)[S@](=N)(=O)C)C4=C5C=CNC5=NC=C4 [AZD6738] (first compound max 1 µM, 7x7, partner max 10 µM) | 0.41 | 0.999 | 0.488 | 0.421 | 0.424 | 0.524 | 0.725 | 0.164 | 0.745 | 0.378 | 0.394 | 0.518 | 0.954 | 0.348 | 0.951 | 0.638 | 0.987 | 0.999 | 0.483 | 0.835 |
| CC1(C)CCC(CN2CCN(c3ccc(C(=O)NS(=O)(=O)c4ccc(NCC5CCOCC5)c([N+](=O)[O-])c4)c(Oc4cnc5[nH]ccc5c4)c3)CC2)=C(c2ccc(Cl)cc2)C1 [Venetoclax] + C[C@@H](Nc1cc(F)cc(F)c1)c1cc(C(=O)N(C)C)cc2c(=O)cc(N3CCOCC3)oc12 [AZD8186] (first compound max 1 µM, 7x7, partner max 3 µM) | 0.434 | 0.844 | 0.115 | 0.184 | 0.169 | 0.447 | 0.109 | 0.119 | 0.378 | 0.79 | 0.129 | 0.0464 | 0.147 | 0.0406 | 0.299 | 0.107 | 0.921 | 0.257 | 0.0937 | 0.108 |
| Cc1cc2ncnn2cc1Nc1ncc2c(n1)n(C1CCOCC1)c(=O)n2C [AZD7648] + CCN(CCO)CCCOc1ccc2c(Nc3cc(CC(=O)Nc4cccc(F)c4)[nH]n3)ncnc2c1 [AZD2811] (first compound max 10 µM, 7x7, partner max 1 µM) | 0.28 | 0.971 | 0.309 | 0.254 | 0.453 | 0.42 | 0.553 | 0.152 | 0.393 | 0.327 | 0.434 | 0.233 | 0.793 | 0.192 | 0.485 | 0.207 | 0.236 | 0.747 | 0.258 | 0.54 |
| CN(CCO)CC[C@H](CSc1ccccc1)Nc1ccc(S(=O)(=O)NC(=O)c2ccc(N3CCC([C@@H](O)c4ccccc4-c4ccc(Cl)cc4)CC3)cc2)cc1S(=O)(=O)C(F)(F)F [AZD4320] + C1CN(CCC1(C(=O)N[C@@H](CCO)C2=CC=C(C=C2)Cl)N)C3=NC=NC4=C3C=CN4 [Capivasertib] (first compound max 1 µM, 7x7, partner max 3 µM) | 0.821 | 1 |  | 0.422 | 0.132 | 0.829 | 0.0895 | 0.0393 | 0.298 | 0.924 | 0.184 | 0.181 | 0.544 | 0.104 | 0.35 | 0.32 | 1 | 0.215 | 0.139 | 0.0682 |
| CCc1c2c(nc3ccc(O)cc13)-c1cc3c(c(=O)n1C2)COC(=O)[C@]3(O)CC [SN-38] + O=C(c1cc(Cc2n[nH]c(=O)c3ccccc23)ccc1F)N1CCN(C(=O)C2CC2)CC1 [Olaparib] (first compound max 0.3 µM, 7x7, partner max 10 µM) | 0.299 | 1 | 0.553 | 0.297 | 0.899 | 0.391 | 0.575 | 0.396 |  | 0.784 | 0.359 |  |  | 0.506 | 0.887 | 0.527 | 0.947 | 1 |  | 0.974 |
| CN(CCO)CC[C@H](CSc1ccccc1)Nc1ccc(S(=O)(=O)NC(=O)c2ccc(N3CCC([C@@H](O)c4ccccc4-c4ccc(Cl)cc4)CC3)cc2)cc1S(=O)(=O)C(F)(F)F [AZD4320] + CCN(CCO)CCCOc1ccc2c(Nc3cc(CC(=O)Nc4cccc(F)c4)[nH]n3)ncnc2c1 [AZD2811] (first compound max 1 µM, 7x7, partner max 1 µM) | 0.616 | 1 | 0.184 | 0.422 | 0.348 | 0.453 | 0.113 | 0.456 | 0.584 | 0.704 | 0.191 | 0.42 |  | 0.508 | 0.556 | 0.181 | 1 | 0.723 | 0.446 | 0.856 |
